Results published in PubChem BioAssay (NCI).
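The concentration for 50% growth inhibition is given as GI50. At the TGI there is no net growth.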

Key:
Assay in all cases: inhibition of tumour cell growth, NCI panel, 384-well format
A549 NSCLC = tested on: A549 NSCLC
MOLT-4 leukemia = tested on: MOLT-4 leukemia
LOX IMVI melanoma = tested on: LOX IMVI melanoma
HOP-62 NSCLC = tested on: HOP-62 NSCLC
HS 578T breast = tested on: HS 578T breast
EKVX NSCLC = tested on: EKVX NSCLC
SK-OV-3 ovarian = tested on: SK-OV-3 ovarian
MDA-MB-231 breast = tested on: MDA-MB-231 breast
MALME-3M melanoma = tested on: MALME-3M melanoma
SK-MEL-28 melanoma = tested on: SK-MEL-28 melanoma
CCRF-CEM leukemia = tested on: CCRF-CEM leukemia
SR leukemia = tested on: SR leukemia
MDA-MB-435 melanoma = tested on: MDA-MB-435 melanoma
RPMI-8226 leukemia = tested on: RPMI-8226 leukemia
U251 glioblastoma = tested on: U251 glioblastoma
CAKI-1 renal = tested on: CAKI-1 renal
HOP-92 NSCLC = tested on: HOP-92 NSCLC
MDA-MB-468 breast = tested on: MDA-MB-468 breast
NCI/ADR-RES ovarian = tested on: NCI/ADR-RES ovarian
OVCAR-5 ovarian = tested on: OVCAR-5 ovarian
NCI-H460 NSCLC = tested on: NCI-H460 NSCLC
HCT-15 colon = tested on: HCT-15 colon
UACC-62 melanoma = tested on: UACC-62 melanoma
SF-268 CNS = tested on: SF-268 CNS
UO-31 renal = tested on: UO-31 renal
SN12C renal = tested on: SN12C renal
IGROV1 ovarian = tested on: IGROV1 ovarian
HL-60(TB) leukemia = tested on: HL-60(TB) leukemia
OVCAR-3 ovarian = tested on: OVCAR-3 ovarian
DU-145 prostate = tested on: DU-145 prostate
NCI-H226 lung = tested on: NCI-H226 lung
SW-620 colon = tested on: SW-620 colon
KM12 colon = tested on: KM12 colon
SF-295 CNS = tested on: SF-295 CNS
MCF7 breast = tested on: MCF7 breast
HT29 colon = tested on: HT29 colon
M14 melanoma = tested on: M14 melanoma
UACC-257 melanoma = tested on: UACC-257 melanoma
TK-10 renal = tested on: TK-10 renal
786-0 renal = tested on: 786-0 renal
NCI-H322M lung = tested on: NCI-H322M lung
T-47D breast = tested on: T-47D breast
NCI-H23 lung = tested on: NCI-H23 lung
COLO 205 colon = tested on: COLO 205 colon
SK-MEL-5 melanoma = tested on: SK-MEL-5 melanoma
SF-539 CNS = tested on: SF-539 CNS
A498 renal = tested on: A498 renal
NCI-H522 lung = tested on: NCI-H522 lung
OVCAR-8 ovarian = tested on: OVCAR-8 ovarian
OVCAR-4 ovarian = tested on: OVCAR-4 ovarian
PC-3 prostate = tested on: PC-3 prostate
SNB-19 CNS = tested on: SNB-19 CNS
SNB-75 CNS = tested on: SNB-75 CNS
RXF 393 renal = tested on: RXF 393 renal
K-562 leukemia = tested on: K-562 leukemia
HCC-2998 colon = tested on: HCC-2998 colon
ACHN renal = tested on: ACHN renal

`CN[C@@H](C)C(=O)N[C@H](C(=O)N1CCC[C@H]1C(=O)Nc1snnc1-c1ccccc1)C1CCCCC1` gave a GI50 (A549 NSCLC) of over 100 µM, a TGI (A549 NSCLC) of over 100 µM and a GI50 (MOLT-4 leukemia) of 17.8 µM. For the same molecule, the TGI (MOLT-4 leukemia) was 35.6 µM, the GI50 (LOX IMVI melanoma) was 37.9 µM and the TGI (LOX IMVI melanoma) was over 100 µM. For the same molecule, the GI50 (HOP-62 NSCLC) was 11.2 µM, the TGI (HOP-62 NSCLC) was 33.2 µM and the GI50 (HS 578T breast) was 34.5 µM. The TGI (HS 578T breast) was over 100 µM, the GI50 (EKVX NSCLC) was 97.3 µM and the TGI (EKVX NSCLC) was over 100 µM. It also gave a TGI (SK-OV-3 ovarian) of 2.78 µM, a GI50 (MDA-MB-231 breast) of 0.0979 µM and a TGI (MDA-MB-231 breast) of 2.51 µM. The GI50 (MALME-3M melanoma) was 0.0294 µM, the TGI (MALME-3M melanoma) was 0.392 µM and the GI50 (SK-MEL-28 melanoma) was 22.7 µM. It also gave a TGI (SK-MEL-28 melanoma) of 64.4 µM, a GI50 (CCRF-CEM leukemia) of 10.9 µM and a TGI (CCRF-CEM leukemia) of 32.2 µM. The GI50 (SR leukemia) was 13.5 µM, the TGI (SR leukemia) was 33.6 µM and the GI50 (MDA-MB-435 melanoma) was 31.2 µM. For the same molecule, the TGI (MDA-MB-435 melanoma) was over 100 µM, the GI50 (RPMI-8226 leukemia) was 22.7 µM and the TGI (RPMI-8226 leukemia) was 57.2 µM. For the same molecule, the GI50 (U251 glioblastoma) was 59.7 µM, the TGI (U251 glioblastoma) was over 100 µM and the GI50 (CAKI-1 renal) was 52.1 µM. It also gave a TGI (CAKI-1 renal) of over 100 µM, a GI50 (HOP-92 NSCLC) of 18.1 µM and a TGI (HOP-92 NSCLC) of 73.6 µM. It also gave a GI50 (MDA-MB-468 breast) of 6.93 µM, a TGI (MDA-MB-468 breast) of 26.9 µM and a GI50 (NCI/ADR-RES ovarian) of 5.89 µM. It also gave a TGI (NCI/ADR-RES ovarian) of 45.2 µM, a GI50 (OVCAR-5 ovarian) of 59.1 µM and a TGI (OVCAR-5 ovarian) of over 100 µM. The GI50 (NCI-H460 NSCLC) was 38.7 µM, the TGI (NCI-H460 NSCLC) was over 100 µM and the GI50 (HCT-15 colon) was 80.7 µM. For the same molecule, the TGI (HCT-15 colon) was over 100 µM, the GI50 (UACC-62 melanoma) was 30.1 µM and the TGI (UACC-62 melanoma) was 91.5 µM. The GI50 (SF-268 CNS) was over 100 µM, the TGI (SF-268 CNS) was over 100 µM and the GI50 (UO-31 renal) was 8.13 µM. For the same molecule, the TGI (UO-31 renal) was over 100 µM, the GI50 (SN12C renal) was over 100 µM and the TGI (SN12C renal) was over 100 µM. It also gave a GI50 (IGROV1 ovarian) of 64.5 µM, a TGI (IGROV1 ovarian) of over 100 µM and a GI50 (HL-60(TB) leukemia) of 0.412 µM. For the same molecule, the TGI (HL-60(TB) leukemia) was 15.5 µM, the GI50 (OVCAR-3 ovarian) was 26.2 µM and the TGI (OVCAR-3 ovarian) was over 100 µM. It also gave a GI50 (DU-145 prostate) of 49.9 µM, a TGI (DU-145 prostate) of over 100 µM and a GI50 (NCI-H226 lung) of 70.7 µM. It also gave a TGI (NCI-H226 lung) of over 100 µM, a GI50 (SW-620 colon) of over 100 µM and a TGI (SW-620 colon) of over 100 µM. The GI50 (KM12 colon) was 60.1 µM, the TGI (KM12 colon) was over 100 µM and the GI50 (SF-295 CNS) was 64 µM. It also gave a TGI (SF-295 CNS) of over 100 µM, a GI50 (MCF7 breast) of 31.7 µM and a TGI (MCF7 breast) of over 100 µM. For the same molecule, the GI50 (HT29 colon) was 17.3 µM, the TGI (HT29 colon) was 35.7 µM and the GI50 (M14 melanoma) was 28.2 µM. For the same molecule, the TGI (M14 melanoma) was 72.7 µM, the GI50 (UACC-257 melanoma) was 16.6 µM and the TGI (UACC-257 melanoma) was 32.5 µM. It also gave a GI50 (TK-10 renal) of 18.6 µM, a TGI (TK-10 renal) of 46.2 µM and a GI50 ([…]-0 renal) of 31.1 µM. The TGI (786-0 renal) was over 100 µM, the GI50 (NCI-H322M lung) was over 100 µM and the TGI (NCI-H322M lung) was over 100 µM. It also gave a GI50 (T-47D breast) of 45.5 µM, a TGI (T-47D breast) of over 100 µM and a GI50 (NCI-H23 lung) of 14.2 µM. For the same molecule, the TGI (NCI-H23 lung) was over 100 µM, the GI50 (COLO 205 colon) was 34.5 µM and the TGI (COLO 205 colon) was over 100 µM. It also gave a GI50 (SK-MEL-5 melanoma) of 0.845 µM, a TGI (SK-MEL-5 melanoma) of 18.1 µM and a GI50 (SF-539 CNS) of 40.1 µM. It also gave a TGI (SF-539 CNS) of over 100 µM, a GI50 (A498 renal) of 26.4 µM and a TGI (A498 renal) of 74.6 µM. The GI50 (NCI-H522 lung) was 2.44 µM, the TGI (NCI-H522 lung) was 11.9 µM and the GI50 (OVCAR-8 ovarian) was 16.5 µM. It also gave a TGI (OVCAR-8 ovarian) of 36.2 µM, a GI50 (OVCAR-4 ovarian) of 0.0142 µM and a TGI (OVCAR-4 ovarian) of 0.046 µM. The GI50 (PC-3 prostate) was 45.6 µM, the TGI (PC-3 prostate) was over 100 µM and the GI50 (SNB-19 CNS) was over 100 µM. It also gave a TGI (SNB-19 CNS) of over 100 µM, a GI50 (SNB-75 CNS) of 38.7 µM and a TGI (SNB-75 CNS) of over 100 µM. The GI50 (RXF 393 renal) was 0.444 µM, the TGI (RXF 393 renal) was 23.8 µM and the GI50 (K-562 leukemia) was 19.1 µM. The TGI (K-562 leukemia) was 35.3 µM, the GI50 (HCC-2998 colon) was 21.5 µM and the TGI (HCC-2998 colon) was 40.9 µM. For the same molecule, the GI50 (ACHN renal) was 17.4 µM and the TGI (ACHN renal) was 39.5 µM.
